# From US6194387A, “6-O-aklyl erythromycin B oxime” (Abbott Laboratories, priority 1999, dated 2001)
# Like-named read-outs stand apart in the source and are kept apart here.
# Columns and labels:
# PSEUDOMONAS AERUGINOSA = test: in vitro antibacterial activity, agar dilution MIC; assay type: cell-based
# Protocol: (§1) 6-O-Methyl-9-oxime erythromycin B prepared in accordance with Examples 1 and 2 was assayed in vitro for anitbacterial activity as follows: Twelve petri dishes containing successive aqueous dilutions of the test compound mixed with 10 mL of sterilized Brain Heart Infusion (BHI) agar (Difco 0418-01-5) were prepared. Each plate was inoculated with 1:100 (or 1:10 for slow-growing strains, such as Micrococcus and Streptococcus) dilutions of up to 32 different micoorganisims, using a Steers replicatore block. The inoculated plates were incubated at 35-37° C. for 20 to 24 hours. In addition, a control plate, using BHI agar containing no test compound, was prepared and incubated at the beginning and end of each test.
# (§2) An additional plate containing a compound having known susceptibility patterns for the organisms being tested and belonging to the same antibiotic class as the test compound was also prepared and incubated as further control, as well as to provide test-to-test comparability. Erythromycin A was used for this purpose.
# (§3) After incubation, each disk was read. The minimum inhibitory concentration (MIC) was defined as the lowest concentration of drug yielding no growth, a slight haze, or sparsely isolated colonies on the inoculum spot as compared to the growth control.
# MYCOBACTERIIUM SMEGMATIS = test: in vitro antibacterial activity, agar dilution MIC; assay type: cell-based; conditions: read-out: SMIC
# Protocol: as §1, §2, §3
# EN[…] [1] = test: in vitro antibacterial activity, agar dilution MIC; assay type: cell-based; conditions: Enterococcus faecium, ATCC8043, read-out: SMIC
# Protocol: as §1, §2, §3
# NOCARDIA ASTEROIDES = test: in vitro antibacterial activity, agar dilution MIC; assay type: cell-based; conditions: ATCC9970, Table 2, ATCC 9970, read-out: SMIC
# Protocol: as §1, §2, §3
# KLEBSIELLA PNEUMONIAE = test: in vitro antibacterial activity, agar dilution MIC; assay type: cell-based; conditions: ATCC8045, read-out: SMIC
# Protocol: as §1, §2, §3
# PSEUDOMONAS CEPACIA = test: in vitro antibacterial activity, agar dilution MIC; assay type: cell-based; conditions: Burkholderia cepacia; Table 2; 2961; read-out: SMIC
# Protocol: as §1, §2, §3
# HAEMOPHILUS INFLUENZAE = test: in vitro antibacterial activity, agar dilution MIC; assay type: cell-based
# Protocol: as §1, §2, §3
# PROVIDENCIA STUART II = test: in vitro antibacterial activity, agar dilution MIC; assay type: cell-based; conditions: read-out: SMIC
# Protocol: as §1, §2, §3
# [2] = tested on: ACINETOBACTER CALCOACETICUS; test: in vitro antibacterial activity, agar dilution MIC; assay type: cell-based; conditions: read-out: SMIC
# Protocol: as §1, §2, §3
# STAPHYLOCOCCUS BOVIS = test: in vitro antibacterial activity, agar dilution MIC; assay type: cell-based; conditions: read-out: SMIC
# Protocol: as §1, §2, §3
# [3] = tested on: STAPHYLOCOCCUS PNEUMONIAE; test: in vitro antibacterial activity, agar dilution MIC; assay type: cell-based
# Protocol: as §1, §2, §3
# M[…] [4] = test: in vitro antibacterial activity, agar dilution MIC; assay type: cell-based; conditions: Micrococcus luteus, ATCC4698, read-out: SMIC
# Protocol: as §1, §2, §3
# STAPHYLOCOCCUS AUREUS = test: in vitro antibacterial activity, agar dilution MIC; assay type: cell-based
# Protocol: as §1, §2, §3
# STAPHYLOCOCCUS PYOGENES = test: in vitro antibacterial activity, agar dilution MIC; assay type: cell-based
# Protocol: as §1, §2, §3
# [5] = tested on: STAPHYLOCOCCUS EPIDERMIDIS; test: in vitro antibacterial activity, agar dilution MIC; assay type: cell-based; conditions: read-out: SMIC
# Protocol: as §1, §2, §3
# EN[…] [6] = test: in vitro antibacterial activity, agar dilution MIC; assay type: cell-based, Enterobacter aerogenes; conditions: Klebsiella aerogenes, ATCC13048, read-out: SMIC
# Protocol: as §1, §2, §3
# M[…] [7] = test: in vitro antibacterial activity, agar dilution MIC; assay type: cell-based, Micrococcus pyogenes; conditions: Staphylococcus aureus, ATCC9341, read-out: SMIC
# Protocol: as §1, §2, §3
# STAP[…] = test: in vitro antibacterial activity, agar dilution MIC; assay type: cell-based, Staphylococcus agalactiae; conditions: Staphylococcus, read-out: SMIC
# Protocol: as §1, §2, §3
# CANDIDA ALBICANS = test: in vitro antimicrobial activity, agar dilution MIC; assay type: cell-based; conditions: read-out: SMIC
# Protocol: as §1, §2, §3
smiles,measurement,setting,value
"CC[C@H]1OC(=O)[C@H](C)[C@@H](O[C@H]2C[C@@](C)(OC)[C@@H](O)[C@H](C)O2)[C@H](C)[C@@H](O[C@@H]2O[C@H](C)C[C@H](N(C)C)[C@H]2O)[C@](C)(O)C[C@@H](C)C(=O)[C@H](C)[C@@H](O)[C@]1(C)O [Erythromycin A, reference compound]",MIC,"PSEUDOMONAS AERUGINOSA; read-out: SMIC, Table 2, 5007",> 100 µg/mL
same,MIC,"PSEUDOMONAS AERUGINOSA; read-out: SMIC, Table 2, BMH10",100 µg/mL
same,MIC,"PSEUDOMONAS AERUGINOSA; read-out: SMIC, Table 2, DPHD-2862",> 100 µg/mL
same,MIC,"PSEUDOMONAS AERUGINOSA; read-out: SMIC, Table 2, DPHD-5263",> 100 µg/mL
same,MIC,"PSEUDOMONAS AERUGINOSA; read-out: SMIC, Table 2, K799/61",0.78 µg/mL
same,MIC,"PSEUDOMONAS AERUGINOSA; read-out: SMIC, Table 2, K799/wt",> 100 µg/mL
same,MIC,MYCOBACTERIIUM SMEGMATIS,12.5 µg/mL
same,MIC,EN[…] [1],0.05 µg/mL
same,MIC,NOCARDIA ASTEROIDES,5 ng/mL
same,MIC,KLEBSIELLA PNEUMONIAE,> 100 µg/mL
same,MIC,PSEUDOMONAS CEPACIA,> 100 µg/mL
same,MIC,"HAEMOPHILUS INFLUENZAE; ATCC10211, read-out: SIMC, Table 3, ATCC 10211",8 µg/mL
same,MIC,"HAEMOPHILUS INFLUENZAE; ATCC19418, read-out: SIMC, Table 3, ATCC 19418",8 µg/mL
same,MIC,"HAEMOPHILUS INFLUENZAE; ATCC43095, read-out: SIMC, Table 3, ATCC 43095",1 µg/mL
same,MIC,"HAEMOPHILUS INFLUENZAE; read-out: SIMC, Table 3, CMX 503B",8 µg/mL
same,MIC,"HAEMOPHILUS INFLUENZAE; read-out: SIMC, Table 3, CMX 504",8 µg/mL
same,MIC,"HAEMOPHILUS INFLUENZAE; read-out: SIMC, Table 3, CMX 519A",4 µg/mL
same,MIC,"HAEMOPHILUS INFLUENZAE; read-out: SIMC, Table 3, CMX 566A",4 µg/mL
same,MIC,"HAEMOPHILUS INFLUENZAE; read-out: SIMC, Table 3, CMX 588A",4 µg/mL
same,MIC,"HAEMOPHILUS INFLUENZAE; read-out: SIMC, Table 3, CMX 632A",4 µg/mL
same,MIC,"HAEMOPHILUS INFLUENZAE; read-out: SIMC, Table 3, CMX 747C",8 µg/mL
same,MIC,"HAEMOPHILUS INFLUENZAE; read-out: SIMC, Table 3, CMX 751",8 µg/mL
same,MIC,"HAEMOPHILUS INFLUENZAE; read-out: SIMC, Table 3, GYR 1177",0.25 µg/mL
same,MIC,"HAEMOPHILUS INFLUENZAE; read-out: SIMC, Table 3, GYR 1435",2 µg/mL
same,MIC,"HAEMOPHILUS INFLUENZAE; read-out: SIMC, Table 3, SOL AMP R",4 µg/mL
same,MIC,"HAEMOPHILUS INFLUENZAE; read-out: SIMC, Table 3, SPK AMP R",4 µg/mL
same,MIC,PROVIDENCIA STUART II,> 100 µg/mL
same,MIC,[2],12.5 µg/mL
same,MIC,STAPHYLOCOCCUS BOVIS,0.01 µg/mL
same,MIC,"[3]; read-out: SIMC, Table 3, 5649",8 µg/mL
same,MIC,"[3]; read-out: SIMC, Table 3, 5654",16 µg/mL
same,MIC,"[3]; read-out: SIMC, Table 3, 5728",128 µg/mL
same,MIC,"[3]; read-out: SIMC, Table 3, 5737",128 µg/mL
same,MIC,"[3]; read-out: SIMC, Table 3, 5979",128 µg/mL
same,MIC,"[3]; read-out: SIMC, Table 3, GYR 1171",0.03 µg/mL
same,MIC,M[…] [4],0.39 µg/mL
same,MIC,"STAPHYLOCOCCUS AUREUS; ATCC6538P, read-out: SMIC, Table 2, ATCC 6538P",0.39 µg/mL
same,MIC,"STAPHYLOCOCCUS AUREUS; read-out: SMIC, Table 2, 1775",> 100 µg/mL
same,MIC,"STAPHYLOCOCCUS AUREUS; read-out: SMIC, Table 2, A5177",12.5 µg/mL
same,MIC,"STAPHYLOCOCCUS AUREUS; read-out: SMIC, Table 2, A-5278",> 100 µg/mL
same,MIC,"STAPHYLOCOCCUS AUREUS; read-out: SMIC, Table 2, CMX 553",0.39 µg/mL
same,MIC,"STAPHYLOCOCCUS AUREUS; read-out: SMIC, Table 2, CMX 642A",0.39 µg/mL
same,MIC,"STAPHYLOCOCCUS AUREUS; read-out: SMIC, Table 2, NCTC10649M",0.39 µg/mL
same,MIC,"STAPHYLOCOCCUS PYOGENES; read-out: SIMC, Table 3, 930",128 µg/mL
same,MIC,"STAPHYLOCOCCUS PYOGENES; read-out: SIMC, Table 3, EES61",0.03 µg/mL
same,MIC,"STAPHYLOCOCCUS PYOGENES; read-out: SIMC, Table 3, PIU 2548",16 µg/mL
same,MIC,"STAPHYLOCOCCUS PYOGENES; read-out: SMIC, Table 2, 930",> 100 µg/mL
same,MIC,"STAPHYLOCOCCUS PYOGENES; read-out: SMIC, Table 2, EES61",0.01 µg/mL
same,MIC,"STAPHYLOCOCCUS PYOGENES; read-out: SMIC, Table 2, PIU 2548",6.2 µg/mL
same,MIC,[5],0.2 µg/mL
same,MIC,EN[…] [6],> 100 µg/mL
same,MIC,M[…] [7],0.01 µg/mL
same,MIC,STAP[…],0.01 µg/mL
same,MIC,CANDIDA ALBICANS,> 100 µg/mL
